From patent US20260035364A1, “BICYCLIC TETRAHYDROTHIAZEPINE DERIVATIVES” (Hoffmann-La Roche Inc., priority 2022, published 2026)

Test system: primary human T-cells
Experiment: IL2 secretion measurements in CD3-stimulated T-cells
Format: cell-based
Conditions: Homo sapiens, T-cell, 24 h, CD3 condition; for Emax: IL2 after 24 hours, 20 μM reference compound A1 = 100%, read-out: Emax IL2 (% activation); for EC50: IL2 secretion after 24 hours, read-out: Tcell IL2 CD3 EC50
Method: As readouts for T-cell activation, IL2 secretion after 24 hours and proliferation after 5 days was measured. Increases in IL2 secretion and proliferation upon compound treatment were assessed as the % of the maximum of reference compound A1. WO 2016/139181 discloses reference compound A1 as example 70. As a counter screen and to make sure that no unwanted TCR-independent activation was triggered, PBS conditions were run for all compounds.
Expanded primary human T-cells were thawed and cultured in RPMI 1640 (Gibco, #61870-010)+5% human serum (HS, Sigma, #H3667)+1 mM Sodium Pyruvate (Gibco, #11360-039)+50 μM 2-mercaptoethanol (Gibco, #31350-010) and 1× Pen-Strep (Life Technologies, #15140122) medium at density of 2 Mio/ml for 3 hours in 5% CO2, 37° C. and 95% humidity. For coating of plates, […] or PBS++ with CD3 antibody (concentration depending on donor and determined by CD3 titrations) was added 100 μl/well to Poly-D Lysine coated 96-well plates. Plates were sealed and incubated at room temperature for 3 hours on a table-top rocking platform. After incubation, plates were washed once with PBS−− and filled with 40 μl/well culture medium only. Compounds were then added (see next section) to medium only plates. After 3 hours of culturing the T-cells, cells were filtered through a cell strainer (Miltenyi Biotech, #130-041-407), counted again and concentration was adjusted to 1.25 Mio/ml.
Cells were then seeded 80 μl/well to the 40 μl/well including dispensed compounds according to plate layout. By adding cells, compounds were further diluted 1:3, and resulting in 100k cells/120 µl/well. After 24 hours 40 μl of supernatant was collected carefully from the top while not disturbing the cells and transferred into a round bottom 96 well plate. Collected and frozen supernatant was used for detection of IL2 using the IL-2 Human ProQuantum Immunoassay Kit (Invitrogen) or using the Human IL-2 ELISA Kit (Thermo Fisher).
Compound Treatment Compounds were added in a 5 or 6 pt dose response with the Tecan D300e Digital Dispenser, all conditions 3 times more concentrated than the end-concentration, since cells are added afterwards (80p1 cells to 40p1 prepared medium with treatment). The DR was starting at 20 μM or 10 μM final top concentration and a dilution factor of 3.333. The positive control was the reference compound A1 that was added in a dose response as well, additionally to 3 wells of only 20 μM representing the positive stimulator control. All wells were normalized with DMSO to a final concentration of 0.6% (0.2% end-concentration).
The immunoassay is done following the manufacturer's manual (Invitrogen, #A35603).
Additional information: For the immunoassay, MicroAmp™ EnduraPlate™ Optical 384-Well plates are used. Frozen supernatant is thawed and centrifuged for 5 minutes at 1000×g, both steps at 4° C. After centrifugation, required sample amount is taken from the top, and in a separate LightCycler V-bottom plate (working plate) diluted with assay dilution buffer, dilution factor depending on the PBS or CD3 condition but at least 1:3. IL-2 standard and blanks are prepared in the same V-bottom plate, standard with a range of 0.0128-5000 pg/ml (extended version). After preparation, 5 μl of sample dilutions or standard/blanks are transferred to the optical 384-well plate (assay plate) and the 10 μl reaction protocol is being followed. For measurement, the QuantStudio 12K Flex system is used. Raw data is extracted and IL-2 concentrations are calculated with the Thermo Fisher online app (apps.thermofisher.com/apps/proquantum).
ELISA is done following the manufacturer's manual (Thermo Fisher Scientific, #88-7025-88). Additional information: For the ELISA Nunc MaxiSorp 96 well plates are used. Frozen supernatant is thawed and centrifuged for 5 minutes at 1000×g, both steps at 4° C. […]

| EC50 | SMILES | Emax |
| --- | --- | --- |
| 1010 nM | CS(=O)(=O)C1(c2nnc(-c3cc4c(cc3F)S(=O)(=O)C[C@H](N)C(=O)N4Cc3ccc(Cl)cc3)o2)CC1 [Example 1, (3R)-3-amino-5-[(4-chlorophenyl)methyl]-8-fluoro-7-[5-(1-methylsulfonylcyclopropyl)-1,3,4-oxadiazol-2-yl]-1,1-dioxo-2,3-dihydro-1λ6,5-benzothiazepin-4-one] | 55% |
| 328 nM | CC(C)(c1nnc(-c2cc3c(cc2F)S(=O)(=O)C[C@H](N)C(=O)N3Cc2ccc(Cl)cc2)o1)S(C)(=O)=O [Example 2, (3R)-3-amino-5-[(4-chlorophenyl)methyl]-8-fluoro-7-[5-(1-methyl-1-methylsulfonyl-ethyl)-1,3,4-oxadiazol-2-yl]-1,1-dioxo-2,3-dihydro-1λ6,5-benzothiazepin-4-one] | 94% |
| 1320 nM | CC(C)(c1nnc(-c2ccc3c(c2)N(Cc2ccc(OC(F)(F)C(F)F)cc2)C(=O)[C@@H](N)CS3(=O)=O)o1)S(C)(=O)=O [Example 3, (3R)-3-amino-7-[5-(1-methyl-1-methylsulfonyl-ethyl)-1,3,4-oxadiazol-2-yl]-1,1-dioxo-5-[[4-(1,1,2,2-tetrafluoroethoxy)phenyl]methyl]-2,3-dihydro-126,5-benzothiazepin-4-one] | 102% |
| 2110 nM | CC(C)(c1nnc(-c2ccc3c(c2)N(Cc2ccc(Oc4ccccc4)cc2)C(=O)[C@@H](N)CS3(=O)=O)o1)S(C)(=O)=O [Example 5, (3R)-3-amino-7-[5-(1-methyl-1-methylsulfonyl-ethyl)-1,3,4-oxadiazol-2-yl]-1,1-dioxo-5-[(4-phenoxyphenyl)methyl]-2,3-dihydro-1λ6,5-benzothiazepin-4-one] | 118% |
| 2660 nM | CC(C)(c1nnc(-c2ccc3c(c2)N(Cc2ccc(OCC(F)(F)F)cc2)C(=O)[C@@H](N)CS3(=O)=O)o1)S(C)(=O)=O [Example 6, (3R)-3-amino-7-[5-(1-methyl-1-methylsulfonyl-ethyl)-1,3,4-oxadiazol-2-yl]-1,1-dioxo-5-[[4-(2,2,2-trifluoroethoxy)phenyl]methyl]-2,3-dihydro-1λ6,5-benzothiazepin-4-one] | 54% |
| 2800 nM | CC(C)(c1nnc(-c2ccc3c(c2)N(Cc2ccc(SC(F)(F)F)cc2)C(=O)[C@@H](N)CS3(=O)=O)o1)S(C)(=O)=O [Example 7] | 94% |
| 5270 nM | CC(C)(c1nnc(-c2ccc3c(c2)N(Cc2ccc(-c4ccc(F)cn4)cc2)C(=O)[C@@H](N)CS3(=O)=O)o1)S(C)(=O)=O [Example 9, (3R)-3-amino-5-[[4-(5-fluoro-2-pyridyl)phenyl]methyl]-7-[5-(1-methyl-1-methylsulfonyl-ethyl)-1,3,4-oxadiazol-2-yl]-1,1-dioxo-2,3-dihydro-1λ6,5-benzothiazepin-4-one] | 65% |
| 1770 nM | CC(C)(c1nnc(-c2ccc3c(c2)N(Cc2ccc(-c4ccc(C(F)(F)F)cn4)cc2)C(=O)[C@@H](N)CS3(=O)=O)o1)S(C)(=O)=O [Example 10] | 174% |
| 932 nM | CC(C)(c1nnc(-c2ccc3c(c2)N(Cc2ccc(OCc4ccccc4)cc2)C(=O)[C@@H](N)CS3(=O)=O)o1)S(C)(=O)=O [Example 11, (3R)-3-amino-5-[(4-benzyloxyphenyl)methyl]-7-[5-(1-methyl-1-methylsulfonyl-ethyl)-1,3,4-oxadiazol-2-yl]-1,1-dioxo-2,3-dihydro-1λ6,5-benzothiazepin-4-one] | 140% |
| 1020 nM | CC(C)(c1nnc(-c2ccc3c(c2)N(Cc2ccc(OCc4ccc(F)cc4)cc2)C(=O)[C@@H](N)CS3(=O)=O)o1)S(C)(=O)=O [Example 12, (3R)-3-amino-5-[[4-[(4-fluorophenyl)methoxy]phenyl]methyl]-7-[5-(1-methyl-1-methylsulfonyl-ethyl)-1,3,4-oxadiazol-2-yl]-1,1-dioxo-2,3-dihydro-1λ6,5-benzothiazepin-4-one] | 173% |
| 3770 nM | CC(C)(c1nnc(-c2ccc3c(c2)N(Cc2ccc(OCc4ccccc4F)cc2)C(=O)[C@@H](N)CS3(=O)=O)o1)S(C)(=O)=O [Example 14, (3R)-3-amino-5-[[4-[(2-fluorophenyl)methoxy]phenyl]methyl]-7-[5-(1-methyl-1-methylsulfonyl-ethyl)-1,3,4-oxadiazol-2-yl]-1,1-dioxo-2,3-dihydro-1λ6,5-benzothiazepin-4-one] | 101% |
| 3530 nM | CN(Cc1ccccc1)c1ccc(CN2C(=O)[C@@H](N)CS(=O)(=O)c3ccc(-c4nnc(C(C)(C)S(C)(=O)=O)o4)cc32)cc1 [Example 15, (3R)-3-amino-5-[[4-[benzyl(methyl)amino]phenyl]methyl]-7-[5-(1-methyl-1-methylsulfonyl-ethyl)-1,3,4-oxadiazol-2-yl]-1,1-dioxo-2,3-dihydro-1λ6,5-benzothiazepin-4-one] | 99% |
| 3420 nM | CC(C)(c1nnc(-c2ccc3c(c2)N(Cc2ccc(-c4noc(C(F)(F)F)n4)cc2)C(=O)[C@@H](N)CS3(=O)=O)o1)S(C)(=O)=O [Example 17, (3R)-3-amino-7-[5-(1-methyl-1-methylsulfonyl-ethyl)-1,3,4-oxadiazol-2-yl]-1,1-dioxo-5-[[4-[5-(trifluoromethyl)-1,2,4-oxadiazol-3-yl]phenyl]methyl]-2,3-dihydro-1λ6,5-benzothiazepin-4-one] | 153% |
| 8700 nM | CCC(CC)Oc1ccc(CN2C(=O)[C@@H](N)CS(=O)(=O)c3ccc(-c4nnc(C(C)(C)S(C)(=O)=O)o4)cc32)cc1 [Example 19, (3R)-3-amino-5-[[4-(1-ethylpropoxy)phenyl]methyl]-7-[5-(1-methyl-1-methylsulfonyl-ethyl)-1,3,4-oxadiazol-2-yl]-1,1-dioxo-2,3-dihydro-1λ6,5-benzothiazepin-4-one] | 54% |
| 5000 nM | CC(C)(c1nnc(-c2ccc3c(c2)N(Cc2ccc(-c4ccc(C#N)cc4)cc2)C(=O)[C@@H](N)CS3(=O)=O)o1)S(C)(=O)=O [Example 20, 4-[4-[[(3R)-3-amino-7-[5-(1-methyl-1-methylsulfonyl-ethyl)-1,3,4-oxadiazol-2-yl]-1,1,4-trioxo-2,3-dihydro-1λ6,5-benzothiazepin-5-yl]methyl]phenyl]benzonitrile] | 77% |
| 1240 nM | COc1ccc(-c2ccc(CN3C(=O)[C@@H](N)CS(=O)(=O)c4ccc(-c5nnc(C(C)(C)S(C)(=O)=O)o5)cc43)cc2)cc1 [Example 21, (3R)-3-amino-5-[[4-(4-methoxyphenyl)phenyl]methyl]-7-[5-(1-methyl-1-methylsulfonyl-ethyl)-1,3,4-oxadiazol-2-yl]-1,1-dioxo-2,3-dihydro-1λ6,5-benzothiazepin-4-one] | 89% |
| 2210 nM | COc1cccc(-c2ccc(CN3C(=O)[C@@H](N)CS(=O)(=O)c4ccc(-c5nnc(C(C)(C)S(C)(=O)=O)o5)cc43)cc2)c1 [Example 22, (3R)-3-amino-5-[[4-(3-methoxyphenyl)phenyl]methyl]-7-[5-(1-methyl-1-methylsulfonyl-ethyl)-1,3,4-oxadiazol-2-yl]-1,1-dioxo-2,3-dihydro-1λ6,5-benzothiazepin-4-one] | 63% |

| SMILES | EC50 | Emax |
| --- | --- | --- |
| CC(C)(c1nnc(-c2ccc3c(c2)N(Cc2ccc(OC4CCCC4)cc2)C(=O)[C@@H](N)CS3(=O)=O)o1)S(C)(=O)=O [Example 16, (3R)-3-amino-5-[[4-(cyclopentoxy)phenyl]methyl]-7-[5-(1-methyl-1-methylsulfonyl-ethyl)-1,3,4-oxadiazol-2-yl]-1,1-dioxo-2,3-dihydro-1λ6,5-benzothiazepin-4-one] | 6220 nM | 61% |
